Measurements reported in the NIST ThermoML archive (doi:10.1016/j.fluid.2015.04.017).

Test: xn = mol fraction of the nth substance listed
Details: 101 kPa, Liquid; for viscosity: Concentric cylinders viscometry; for mass density: Vibrating tube method

CCOC(=O)C(C)O (stereo not drawn) [DL-ethyl lactate] + Cc1ccccc1
Details	mass density, 288.15 K [kg/m3]	mass density, 293.15 K [kg/m3]	mass density, 298.15 K [kg/m3]	mass density, 303.15 K [kg/m3]	viscosity, 288.15 K [mPa·s]	viscosity, 293.15 K [mPa·s]	viscosity, 298.15 K [mPa·s]	viscosity, 303.15 K [mPa·s]
x1 = 0.1001	887.622	882.811	877.99	873.16	0.6897	0.6502	0.6148	0.5814
x1 = 0.2001	904.719	899.769	894.808	889.833	0.7894	0.7404	0.6896	0.6488
x1 = 0.3	921.906	916.845	911.77	906.687	0.9136	0.8468	0.7865	0.7345
x1 = 0.4	939.168	934.015	928.847	923.666	1.06	0.9765	0.9011	0.8343
x1 = 0.4998	956.144	950.923	945.727	940.433	1.258	1.141	1.043	0.9586
x1 = 0.6001	973.156	967.906	962.633	957.336	1.493	1.344	1.22	1.112
x1 = 0.7	990.077	984.738	979.381	974.002	1.795	1.597	1.434	1.295
x1 = 0.7999	1006.73	1001.36	995.963	990.547	2.174	1.911	1.695	1.517
x1 = 0.9	1023.31	1017.91	1012.47	1007.14	2.637	2.29	2.01	1.782
x1 = 1	1039.28	1033.84	1028.39	1022.92	3.207	2.75	2.39	2.097
